The numbers were not newly measured in publication PMC10125900 (The Journal of General Physiology, 2023), which cites them from elsewhere.

Molecules are shown by their SMILES. pEC50: −log10 of the molar value.

In data set [1] the test system is GluN3A ABD. To be noted: ref Furukawa and Gouaux, 2003; Yao and Mayer, 2006.
Data set [2] concerns GluN1^FA+TL/3A. To be noted: read-out: glycine potency at GluN3A, EC50; ref Kvist et al., 2013a.
Data set [3] concerns the target GluN1/2A–D receptors. Particulars: read-out: glycine potency at GluN1, EC50; ref Hansen et al., 2021.

Broadly, the pEC50 is −log10 of the EC50, conventionally taken in molar units. On to `NCC(=O)O` [glycine], for which the “higher affinity for isolated GluN3A ABD compared to isolated GluN1 ABD” value in data set [1] was 650 fold. In addition, the pEC50 is 4.22 in data set [2] and 6.00 to 7.00 in data set [3].
